Measurements: patent US20190177774A1, “MOLECULAR REFERENCE CONTROLS” (STRECK, INC., priority 2016, published 2019)

Experiments:
Assay in all cases: Time to stabilization (viability and sterility after addition of stabilizer)
E. coli = assay type: cell-based, Escherichia coli
Protocol: (§1) In one example, bacterial cells containing target gene sequences were stabilized with various cross-linkers and evaluated by microbiological methods. Viability and sterility were evaluated at various time points following addition of stabilizer. Time to stabilization was evaluated for particular bacteria/stabilizer combinations as shown below in Table 1.

N. sicca = assay type: cell-based, Neisseria sicca
Protocol: as §1

C. psuedo = assay type: cell-based, Corynebacterium pseudodiphtheriticum
Protocol: as §1

Compound | Time to Stabilization (E. coli) [days] | Time to Stabilization (N. sicca) [h] | Time to Stabilization (C. psuedo) [h]
O=C(CCCCCCC(=O)ON1C(=O)CC(S(=O)(=O)O)C1=O)ON1C(=O)CC(S(=O)(=O)O)C1=O (centres unmarked) [Bis[sulfosuccinimidyl] Suberate] | >5 |  | 
O=C(CCCCCCC(=O)ON1C(=O)CCC1=O)ON1C(=O)CCC1=O [Disuccinimidyl Suberate] | 5 |  | 
C=O [Formaldehyde] | 1 | 24 | 24
O=CCCCC=O [Glutaraldehyde] | 0.083 | 2 | 24
o-Phthalaldehyde | 0.0104 | 2 | 24
